Laboratory results published in patent publication US20170157001A1, “Compositions Comprising Strontium and Uses Thereof in the Treatment or Prevention of Gingivitis, Periodontitis, Periodontitis as a Manifestation of Systemic Diseases, and Necrotizing Periodontal Diseases” (priority 2006, published 2017).

Key:
[1] = relative to cholecalciferol itself; cited from earlier work
[2] = Determination of solubility velocity by ICP-MS in 0.1 M hydrochloride solution; conditions: in hydrochloride 0.1 M, 37° C., 84Sr signal
Experimental: Determination of solubility velocity by Inductively Coupled Plasma-Mass Spectrometry (ICP-MS)
The solubility is measures as strontium signals over time using ICP-MS. Using this technique it is possible to follow multiple isotopes of the element, here, ^84Sr, ^86Sr, ^87Sr and ^88Sr.
A hydrochloride solution (0.1 M) was added to the sample and the sample then immediately enters, by means of a peristaltic pump, the atomizer of the ICP-MS apparatus. The pump speed was 4.4 ml/min. […] The temperature of the HCl solution was 37° C.
The solubility velocity of the compound is obtained by analysing the slopes of the front curves. The first curve represents the experiment and the second curve the apparatus, thus the difference between the slopes of the two curves are used to calculate the solubility velocity by division with the top value.

solubility velocity [2]	Structure (SMILES)	times more effective in terms of bioavailability than cholecalciferol [1]
–	C=C1/C(=C\C=C2/CCC[C@]3(C)[C@@H]([C@H](C)CCCC(C)(C)O)CC[C@@H]23)C[C@@H](O)C[C@@H]1O [1,25 dihydroxycholecalciferol]	ten
very high	[Cl-].[Cl-].[Sr+2] [strontium chloride]	–
–	C=C1CC[C@H](O)C/C1=C/C=C1\CCC[C@]2(C)[C@@H]([C@H](C)CCCC(C)(C)O)CC[C@@H]12 [25-hydroxycholecalciferol]	five
